The values that follow come from US20100203125A1, “SYNERGISTIC ANTIBACTERIAL FORMULATION AND A METHOD OF MAKING THE SAME” (priority 2004, published 2010).

Molecules are shown by their SMILES. Converted amounts (≈) assume the structure as drawn. Read-outs that look alike come from different tables or passages of the source.

Data set [1] in a line: Clinical Trial 2, comparative plasma concentration study. As to conditions: for Plasma concentration from the formulation compared with conventional separate dosing: human, in vivo. The method, then: Comparative studies were conducted on 24 healthy male patients who were pre-tested for non-allergic conditions against Betalactam and Cephalsporin antibiotics.
For data set [2] the following is noted: in vivo; cited from earlier work.
For data set [3] the following is noted: cited from earlier work.
For data set [4] the following is noted: in vivo, cited from earlier work; for Bioavailability after oral administration / Serum half-life / half life: human.
In data set [5] the test system is plasma proteins. To be noted: cited from earlier work.
The nature of data set [6]: Plasma concentration levels of cefixime and dicloxacillin formulation (Table 4). As to conditions: in vivo.
In data set [7] the test system is Streptococcus pneumoniae. To be noted: cited from earlier work.
Data set [8] concerns Staphylococcus aureus. As to conditions: cited from earlier work.
Data set [9] concerns Staphylococcus epidermidis. As to conditions: cited from earlier work.
Data set [10] has as its system Streptococcus pyogenes. To be noted: cited from earlier work.
Data set [11] concerns Neisseria gonorrhoeae. To be noted: cited from earlier work.
The test system of data set [12] is E. coli [C1]. In words: Zone of inhibition study. Format: cell-based. As to conditions: 37° C. 24 hours, excluding well diameter. The method, then:
(§1) Quantitative methods of susceptibility testing that require measurements of zone diameters give the most precise estimates of antibiotic susceptibility. Zone of inhibition study was performed Cefixime and dicloxacillin combination with suitable concentration and compare with the zone of inhibition of individual antibiotic to study the synergy. Nutrient Agar plates (duplicate sets) were used for inoculation of microorganism culture using spread plate technique. Wells of 6.0 mm diameter were made in agar plate and test and standard antibiotics preparations were placed in the respective wells. Suitable control plates and plates with no antibiotics were simultaneously then inoculated after appropriate dilution on separate nutrient agar plates (duplicate sets) using spread plate technique. […] All the diameters [zone of inhibition] were measure excluding the well diameter. Four species of bacteria namely E. coli [C1], S. aureus [C2], Salmonella typhimurium [C3], and S. epidermidis [C4] were selected for zone of inhibition study. […] There was no zone of inhibitions found for control plates.

The subject of data set [13] is S. aureus [C2]. In words: Zone of inhibition study. Format: cell-based. As to conditions: 37° C. 24 hours, excluding well diameter. The method, then: as §1
Data set [14] deals with S. epidermidis [C4]. Kind of data set: Zone of inhibition study. Format: cell-based. As to conditions: 37° C. 24 hours, excluding well diameter. The method, then:
as §1

The subject of data set [15] is Salmonella typhimurium [C3]. In words: Zone of inhibition study. Format: cell-based. To be noted: 37° C. 24 hours, excluding well diameter. The method, then: as §1
Data set [16] is described as follows: in vivo.

In the case of `C=CC1=C(C(=O)O)N2C(=O)[C@@H](NC(=O)/C(=N\OCC(=O)O)c3csc(N)n3)[C@H]2SC1` [Cefixime], the “Plasma concentration from the formulation compared with conventional separate dosing” value in [1] is reported as “better”. The Blood plasma conc came to 0.46 in [1] (separate tablets (Cloxacillin 250 mg × 2, Cefixime 200 mg), 1 hrs); 1.23 in data set [1] (separate tablets (Cloxacillin 250 mg × 2, Cefixime 200 mg), 2 hrs); 1.52 in data set [1] (separate tablets (Cloxacillin 250 mg × 2, Cefixime 200 mg), 3 hrs); 1.79 in [1] (separate tablets (Cloxacillin 250 mg × 2, Cefixime 200 mg), 4 hrs); 1.14 in data set [1] (separate tablets (Cloxacillin 250 mg × 2, Cefixime 200 mg), 6 hrs); 0.88 in [1] (separate tablets (Cloxacillin 250 mg × 2, Cefixime 200 mg), 8 hrs). Moreover, the Blood plasma conc in [1] (separate tablets (Cloxacillin 250 mg × 2, Cefixime 200 mg), 9 hrs) amounted to 0.72; in data set [1] (separate tablets (Cloxacillin 250 mg × 2, Cefixime 200 mg), 10 hrs), 0.6; in data set [1] (separate tablets (Cloxacillin 250 mg × 2, Cefixime 200 mg), 12 hrs), 0.5; in data set [1] (separate tablets (Cloxacillin 250 mg × 2, Cefixime 200 mg), 14 hrs), 0.36; in [1] (separate tablets (Cloxacillin 250 mg × 2, Cefixime 200 mg), 16 hrs), 0.2; in [1] (separate tablets (Cloxacillin 250 mg × 2 at 6 hour interval, Cefixime 200 mg), 0 hrs, average of 24), 0. For the same compound, the Blood plasma conc was 0 in [1] (synergetic formulation (Cloxacillin 500 mg, Cefixime in combination), 0 hrs, average of 24); 0.7 in data set [1] (synergetic formulation (Cloxacillin 500 mg, Cefixime in combination), 1 hrs); 1.4 in data set [1] (synergetic formulation (Cloxacillin 500 mg, Cefixime in combination), 2 hrs); 1.58 in data set [1] (synergetic formulation (Cloxacillin 500 mg, Cefixime in combination), 3 hrs); 2.01 in [1] (synergetic formulation (Cloxacillin 500 mg, Cefixime in combination), 4 hrs); 1.52 in [1] (synergetic formulation (Cloxacillin 500 mg, Cefixime in combination), 6 hrs). For the same compound, the Blood plasma conc in [1] (synergetic formulation (Cloxacillin 500 mg, Cefixime in combination), 8 hrs) is 1.03; in data set [1] (synergetic formulation (Cloxacillin 500 mg, Cefixime in combination), 9 hrs), 0.91; in data set [1] (synergetic formulation (Cloxacillin 500 mg, Cefixime in combination), 10 hrs), 0.72; in data set [1] (synergetic formulation (Cloxacillin 500 mg, Cefixime in combination), 12 hrs), 0.6; in [1] (synergetic formulation (Cloxacillin 500 mg, Cefixime in combination), 14 hrs), 0.34; in data set [1] (synergetic formulation (Cloxacillin 500 mg, Cefixime in combination), 16 hrs), 0.18. Further, the Acute toxicity result in data set [2] was “negligibly low”. Further, the “Solubility in dehydrated alcohol” value in [3] was “sparingly soluble”. Besides, the “Solubility in ethyl acetate” value in [3] was “practically insoluble”. Also, the “Solubility in methyl alcohol” value in data set [3] is “freely soluble”. Further, the Solubility in water entry in data set [3] is “slightly soluble”. Moreover, the Oral absorption in data set [4] (po) is 50%. Also, the “Oral dose absorbed from the gastrointestinal tract” value in data set [4] (po) is reported as 40-50%. In addition, in data set [4], the “Eliminated by nonrenal mechanisms” value is “Up to 60%”. For the same compound, in [4], the Plasma half-life is 180 min. In addition, the “Urinary Excretion” value in data set [4] is on record as 34-48%. In addition, the “Vol Distribution” value in data set [4] is listed as 0.30 ± 0.03. Further, the Plasma protein binding in data set [5] (Table 1) is given as 60-70%. The compound also came in with a concentration at 0 h in data set [6] of 0 ng/mL. For the same compound, the concentration at 0.5 h in data set [6] came to 360 ng/mL. The compound further registered a concentration at 1 h in data set [6] of 520 ng/mL. In data set [6], this compound came in with a concentration at 2 h of 1340 ng/mL. Also, in [6], the concentration at 3 h amounted to 1620 ng/mL. The compound further came in with a concentration at 4 h in [6] of 1840 ng/mL. The compound further gave a concentration at 6 h in data set [6] of 1560 ng/mL. In [6], this compound returned a concentration at 8 h of 980 ng/mL. The concentration at 10 h in data set [6] came to 600 ng/mL. The same compound showed a concentration at 12 h in data set [6] of 500 ng/mL. The compound further came in with a concentration at 14 h in data set [6] of 350 ng/mL. The compound also registered a concentration at 16 h in data set [6] of 200 ng/mL. In data set [6], this compound registered a concentration at 20 h of 0 ng/mL. Also, the concentration at 24 h in [6] was 0 ng/mL.

Take `Cc1onc(-c2ccccc2Cl)c1C(=O)N[C@@H]1C(=O)N2[C@@H]1SC(C)(C)[C@@H]2C(=O)O` [Cloxacillin sodium, chlorphenylmethyl isoxazolyl penicillin sodium]: the “Bioavailability after oral administration” value (shortened to “Bioavailability”) in data set [4] (po) is given as 37-60%.

The MIC90 is the lowest concentration that inhibits either 90% of growth or 90% of the strains tested, depending on the study. As a reminder, the Cmax is the peak of the concentration-time curve. For the compound `Cc1onc(-c2ccccc2Cl)c1C(=O)N[C@@H]1C(=O)N2[C@@H]1SC(C)(C)[C@@H]2C(=O)O` [Cloxacillin], in data set [1], the “Plasma concentration from the formulation compared with conventional separate dosing” value is listed as “significantly better plasma concentration”. In data set [7], the MIC90 was 0.25 µg/mL (≈ 0.574 µM). In addition, the MIC90 in [8] was 0.1 µg/mL (≈ 0.229 µM). Further, the MIC90 in data set [9] was 0.1 µg/mL (≈ 0.229 µM). For the same compound, in data set [10], the MIC90 is 0.1 µg/mL (≈ 0.229 µM). Further, in data set [11], the MIC90 was 0.1 µg/mL (≈ 0.229 µM). In addition, in [4], the “Serum half-life / half life” value was 24 to 48 min, the Cmax is 8000 ng/mL, the Half life is on record as 38 min and the Plasma half life is 0.5 h-0.65. In addition, the Plasma half-life in [4] is 30 to 90 min. In addition, in data set [4] (iv), the Urinary clearance rate was 162.2 mL/min. In [5] (plasma), the Plasma protein binding is recorded as 93-95%.

On to `Cc1onc(-c2c(Cl)cccc2Cl)c1C(=O)N[C@@H]1C(=O)N2[C@@H]1SC(C)(C)[C@@H]2C(=O)O` [Dicloxacillin], for which the Zone of inhibition in data set [12] stood at 9 mm. Further, the Zone of inhibition in data set [13] is listed as 15 mm. Besides, the Zone of inhibition in [14] is recorded as 15 mm. Moreover, in [15], the Zone of inhibition turned out to be 10 mm. In [16], this compound returned a concentration at 0 h of 0 ng/mL, a concentration at 0.5 h of 700 ng/mL, a concentration at 1 h of 810 ng/mL and a concentration at 2 h of 2260 ng/mL. In data set [16], this compound displayed a concentration at 3 h of 3100 ng/mL, a concentration at 4 h of 3940 ng/mL, a concentration at 6 h of 4100 ng/mL and a concentration at 8 h of 2960 ng/mL. Moreover, in data set [16], the concentration at 10 h was 2400 ng/mL, the concentration at 12 h stood at 1380 ng/mL, the concentration at 14 h was determined as 630 ng/mL and the concentration at 16 h came to 300 ng/mL. In [16], this compound showed a concentration at 20 h of 0 ng/mL and a concentration at 24 h of 0 ng/mL. Moreover, in [4] (po), the “Bioavailability” value was 60-80% and the Oral absorption was 60-80%. For the same compound, in data set [4], the “Excreted into the urine” value is on record as “about 60%”, the Plasma half life is 0.5 to 1 h, the Plasma half-life is 30 to 90 min and the “Urinary Excretion” value is given as 60%. For the same compound, in [4], the “Vol Distribution” value is reported as 0.1 mL/g and the Volume of distribution is recorded as 0.1 mL/g. Also, in [5] (plasma), the “Bound to plasma proteins” value is listed as 90-98% and the Plasma protein binding is given as 90-98%.

Consider `Cc1onc(-c2ccccc2)c1C(=O)NC1C(=O)N2[C@@H]1SC(C)(C)[C@@H]2C(=O)[O-].[Na+]` (stereo partly drawn) [Oxacillin sodium], for which the “Bioavailability” value in [4] (po) was 30-35%.

Turning to `Cc1onc(-c2ccccc2)c1C(=O)N[C@@H]1C(=O)N2[C@@H]1SC(C)(C)[C@@H]2C(=O)O` [oxacillin], in data set [4], the “Serum half-life / half life” value is 18 to 48 min. Moreover, in data set [5] (plasma), the “Bound to plasma proteins” value is given as 89-94%.
